The text below walks through data of patent publication US20090118274A1, “MONOCYCLIC AMINOPROPYL TETRAHYDRO-PYRAZOLO-PYRIDINE MODULATORS OF CATHEPSIN S” (priority 2007, published 2009).

As usually defined, the IC50 is the concentration at which inhibition is half-maximal.

T1 sequence (P25774 115-331): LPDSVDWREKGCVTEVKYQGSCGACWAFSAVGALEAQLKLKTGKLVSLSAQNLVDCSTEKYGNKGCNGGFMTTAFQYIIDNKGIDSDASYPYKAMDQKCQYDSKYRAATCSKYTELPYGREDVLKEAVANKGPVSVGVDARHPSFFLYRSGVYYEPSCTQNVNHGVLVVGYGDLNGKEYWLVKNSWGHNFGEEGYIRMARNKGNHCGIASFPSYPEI

The first assay addresses T1, Recombinant human cathepsin S (CatS) (Homo sapiens, UniProt P25774).
T1 construct: made in house
Briefly: Recombinant human cathepsin S (CatS) fluorogenic substrate inhibition assay. Type of assay: biochemical.
Conditions: not given
How it is done: Recombinant human cathepsin S (CatS) was expressed in the baculovirus system and purified in one step with a thiopropyl-sepharose column. […] The assay is run in 150 mM sodium acetate pH 5.0 containing 1.5 mM DTT and 150 mM NaCl. […] Measurements are taken every min for 20 min. The rate is calculated from the slope of the increase in fluorescence and the percent inhibition is calculated from this.
`CC(C)CCNCc1cc(-c2nn(CC(O)CN3CCC(NS(C)(=O)=O)CC3)c3c2CN(S(C)(=O)=O)CC3)ccc1C(F)(F)F` (stereo not drawn) [Example 283, N-{1-[2-Hydroxy-3-(5-methanesulfonyl-3-3-[(3-methyl-butylamino)-methyl]-4-trifluoromethyl-phenyl-4,5,6,7-tetrahydro-pyrazolo[4,3-c]pyridin-1-yl)-propyl]-piperidin-4-yl}-methanesulfonamide]: the IC50 came to 800 nM.

The assay is the same for the next values; noted with them: average of results obtained; substrate Z-Valine-Valine-Arginine-AMC 10 μM, pH 5.0; read-out: CatS IC50.
On to `CS(=O)(=O)N1CCc2c(c(-c3ccc(C(F)(F)F)c(CNC(=O)C4CCCCCC4)c3)nn2CC(O)CN2CCCC2)C1` (stereo not drawn) [Example 160, Cycloheptanecarboxylic acid 5-[1-(2-hydroxy-3-pyrrolidin-1-yl-propyl)-5-methanesulfonyl-4,5,6,7-tetrahydro-1H-pyrazolo[4,3-c]pyridin-3-yl]-2-trifluoromethyl-benzylamide], for which the IC50 is 320 nM.
As for `CS(=O)(=O)N1CCc2c(c(-c3ccc(C(F)(F)F)c(CNC(=O)c4ccccc4O)c3)nn2CCCN2CCC3(CCNC3=O)CC2)C1` [Example 150, 2-Hydroxy-N-(5-{5-methanesulfonyl-1-[3-(1-oxo-2,8-diaza-spiro[4.5]dec-8-yl)-propyl]-4,5,6,7-tetrahydro-1H-pyrazolo[4,3-c]pyridin-3-yl}-2-trifluoromethyl-benzyl)-benzamide], the half-maximal inhibitory concentration (IC50) was determined as 240 nM.
With `CS(=O)(=O)N1CCc2c(c(-c3ccc(C(F)(F)F)c(CNC(=O)c4ccc(F)cc4)c3)nn2CC(O)CN2CCC(O)CC2)C1` (stereo not drawn) [Example 25, 4-Fluoro-N-(5-{1-[2-hydroxy-3-(4-hydroxy-piperidin-1-yl)-propyl]-5-methanesulfonyl-4,5,6,7-tetrahydro-1H-pyrazolo[4,3-c]pyridin-3-yl}-2-trifluoromethyl-benzyl)-benzamide], the IC50 is 170 nM.
`CS(=O)(=O)N1CCc2c(c(-c3ccc(Cl)c(COC(=O)c4ccccc4)c3)nn2CCCN2CCCC2)C1` [Example 70, Benzoic acid 2-chloro-5-[5-methanesulfonyl-1-(3-pyrrolidin-1-yl-propyl)-4,5,6,7-tetrahydro-1H-pyrazolo[4,3-c]pyridin-3-yl]-benzyl ester]: the half-inhibitory concentration (IC50) amounted to 1850 nM.
For the compound `CS(=O)(=O)NCc1cc(-c2nn(CC(O)CN3CCCC3)c3c2CN(S(C)(=O)=O)CC3)ccc1C(F)(F)F` (stereo not drawn) [Example 195, N-{5-[1-(2-Hydroxy-3-pyrrolidin-1-yl-propyl)-5-methanesulfonyl-4,5,6,7-tetrahydro-1H-pyrazolo[4,3-c]pyridin-3-yl]-2-trifluoromethyl-benzyl}-methanesulfonamide], the half-inhibitory concentration (IC50) was 6500 nM.
As to `CS(=O)(=O)N1CCc2c(c(-c3ccc(Cl)c(CNC(=O)c4ccc(F)cc4)c3)nn2CC(O)CN2CCC(N)CC2)C1` (stereo not drawn) [Example 83, N-(5-{1-[3-(4-Amino-piperidin-1-yl)-2-hydroxy-propyl]-5-methanesulfonyl-4,5,6,7-tetrahydro-1H-pyrazolo[4,3-c]pyridin-3-yl}-2-chloro-benzyl)-4-fluoro-benzamide], the concentration for half-maximal inhibition (IC50) stood at 270 nM.
Same read-out and setting: next, `CS(=O)(=O)N1CCc2c(c(-c3ccc(C(F)(F)F)c(CNC(=O)c4ccc5ccccc5c4)c3)nn2CC(O)CN2CCCC2)C1` (stereo not drawn) [Example 64, Naphthalene-2-carboxylic acid 5-[1-(2-hydroxy-3-pyrrolidin-1-yl-propyl)-5-methanesulfonyl-4,5,6,7-tetrahydro-1H-pyrazolo[4,3-c]pyridin-3-yl]-2-trifluoromethyl-benzylamide]: 370 nM; `CS(=O)(=O)N1CCc2c(c(-c3ccc(C(F)(F)F)c(CNC(=O)c4ccc(F)c(Cl)c4)c3)nn2CC(O)CN2CCCC2)C1` (stereo not drawn) [Example 61, 3-Chloro-4-fluoro-N-{5-[1-(2-hydroxy-3-pyrrolidin-1-yl-propyl)-5-methanesulfonyl-4,5,6,7-tetrahydro-1H-pyrazolo[4,3-c]pyridin-3-yl]-2-trifluoromethyl-benzyl}-benzamide]: 190 nM.
For `CC(C)=CC(=O)NCc1cc(-c2nn(CC(O)CN3CCC(O)CC3)c3c2CN(S(C)(=O)=O)CC3)ccc1C(F)(F)F` (stereo not drawn) [Example 154, 3-Methyl-but-2-enoic acid 5-{1-[2-hydroxy-3-(4-hydroxy-piperidin-1-yl)-propyl]-5-methanesulfonyl-4,5,6,7-tetrahydro-1H-pyrazolo[4,3-c]pyridin-3-yl}-2-trifluoromethyl-benzylamide], the half-maximal inhibitory concentration (IC50) worked out at 90 nM.
Take `CC(C)=CC(=O)NCc1cc(-c2nn(CC(O)CN3CCOCC3)c3c2CN(S(C)(=O)=O)CC3)ccc1C(F)(F)F` (stereo not drawn) [Example 153, 3-Methyl-but-2-enoic acid 5-[1-(2-hydroxy-3-morpholin-4-yl-propyl)-5-methanesulfonyl-4,5,6,7-tetrahydro-1H-pyrazolo[4,3-c]pyridin-3-yl]-2-trifluoromethyl-benzylamide]: the IC50 worked out at 140 nM.
Turning to `CS(=O)(=O)N1CCc2c(c(-c3ccc(C(F)(F)F)c(CNC(=O)c4ccc(F)cc4)c3)nn2CC(O)CN2CCNC(=O)C2)C1` (stereo not drawn) [Example 19, 4-Fluoro-N-(5-{1-[2-hydroxy-3-(3-oxo-piperazin-1-yl)-propyl]-5-methanesulfonyl-4,5,6,7-tetrahydro-1H-pyrazolo[4,3-c]pyridin-3-yl}-2-trifluoromethyl-benzyl)-benzamide], the IC50 worked out at 330 nM.
